Tested on: rhesus monkey PGP
Assay: Polarization of vinblastine transport in Transwells, rhesus monkey PGP transfected LLC-PK1 cell monolayers
Details: PGP transfected LLC-PK1 cells, compared with control cells; vinblastine 0.1 μM
Source text: Rhesus monkey PGP cDNA (SEQ ID NO:1) is introduced into a clonal population of LLC-PK1 cells in a vector that confers resistance to hygromycin B. LLC-PK1 cells are obtained from the American Type Culture Collections and are propagated in Medium 199 supplemented to 7% with fetal bovine serum. LLC-PK1 cells are recloned prior to transfection in order to assure homogeneity of the cell population. Briefly, rhesus monkey PGP cDNA is incorporated into the p222CMV vector. […] The PGP cDNA is under the control of the cytomegalovirus (CMV) immediate early promoter. The vector confers resistance to hygromycin B. Cells (in 0.4 mL) and DNA (10 to 20 μg) were transfected by electroporation using a BTX Electro cell manipulator model 600 using a 2 mm gap cell, 100V, 2500 μF capacitance and 72 ohm resistance. […] Expression of PGP is measured by the polarization of vinblastine (0.1 μM) transport in Transwells™.
LLC-PK1 cell based transport studies are conducted in 24 well Transwells™ (Corning Costar, Catalog number 3415). […] Transport is measured under sink conditions in both the apical to basolateral (A to B) and basolateral to apical (B to A) directions. […] Quantitation of the amount of compound transported is by liquid scintillation counting (vinblastine) or HPLC with UV or mass spectrometric detection.
Functional expression of rhesus monkey PGP is measured by the polarization of transport of vinblastine.

Compound: CC[C@]1(O)C[C@@H]2CN(CCc3c([nH]c4ccccc34)[C@@](C(=O)OC)(c3cc4c(cc3OC)N(C)[C@H]3[C@@](O)(C(=O)OC)[C@H](OC(C)=O)[C@]5(CC)C=CCN6CC[C@]43[C@@H]65)C2)C1 [vinblastine]
- B to A/A to B ratio (polarization of transport): much higher ratio
